Melting point and IC50 data for 22 compounds are collected here from patent publication US9434734B2, “Substituted pyrazoloquinazolinones and pyrroloquinazolinones as allosteric modulators of group II metabotropic glutamate receptors” (Domain Therapeutics, priority 2012, dated 2016).

Series [1] has as its target T1, human mGluR2 (hmGluR2) transiently over-expressed in HEK-293 cells (Homo sapiens, UniProt Q14416).
T1 construct: expressed in transfected cells; host or cells: HEK-293 cells, transient co-transfection by electroporation
Briefly: Human mGluR2 negative allosteric modulator evaluation using Ca++ functional assay (agonist and NAM activity). The class given is cell-based. The gist of the method:
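Compound alone (agonist mode) was followed on the same plate by EC80 glutamate (NAM mode), with fluorescence read 60 s. Eight-point curves, variable-slope fit, duplicate, two independent runs.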

[2] abbreviates: hmGluR2 in HEK-293 cells, EC80 glutamate, Fluo4AM calcium readout, read-out: mGluR2 negative allosteric modulator activity IC50.

Where two headings read alike, the source gives them in different places. Some results are limits rather than exact numbers.

T1 sequence (Q14416 19-872): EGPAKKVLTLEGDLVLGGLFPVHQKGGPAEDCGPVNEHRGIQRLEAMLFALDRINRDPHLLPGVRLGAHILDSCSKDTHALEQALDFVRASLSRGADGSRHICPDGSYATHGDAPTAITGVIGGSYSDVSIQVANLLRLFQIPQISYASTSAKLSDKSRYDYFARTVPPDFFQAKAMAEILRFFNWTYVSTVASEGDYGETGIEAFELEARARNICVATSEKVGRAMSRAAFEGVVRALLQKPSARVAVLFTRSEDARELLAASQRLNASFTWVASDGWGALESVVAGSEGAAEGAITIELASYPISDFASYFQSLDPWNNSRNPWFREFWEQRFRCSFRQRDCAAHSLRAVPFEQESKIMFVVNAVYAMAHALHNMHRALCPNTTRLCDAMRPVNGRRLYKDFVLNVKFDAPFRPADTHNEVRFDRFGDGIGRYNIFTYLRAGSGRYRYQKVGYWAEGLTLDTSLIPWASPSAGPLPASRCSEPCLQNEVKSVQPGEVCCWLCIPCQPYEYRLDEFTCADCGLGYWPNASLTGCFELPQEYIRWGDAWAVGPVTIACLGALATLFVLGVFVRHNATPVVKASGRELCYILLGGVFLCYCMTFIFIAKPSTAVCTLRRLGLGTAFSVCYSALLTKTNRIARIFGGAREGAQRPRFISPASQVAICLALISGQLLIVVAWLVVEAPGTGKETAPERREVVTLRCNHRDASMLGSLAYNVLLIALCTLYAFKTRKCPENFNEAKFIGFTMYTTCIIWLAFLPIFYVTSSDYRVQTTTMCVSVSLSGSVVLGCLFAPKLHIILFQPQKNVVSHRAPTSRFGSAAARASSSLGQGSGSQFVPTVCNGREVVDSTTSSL

On to `CC(=O)c1cccc(-c2ccc3c(=O)n(C)c4cc(-c5ccccc5)nn4c3c2)c1` [Example 14, 8-(3-Acetyl-phenyl)-4-methyl-2-phenyl-4H-pyrazolo[1,5-a]quinazolin-5-one], for which the melting point was in the range of 207 to 209 °C. The IC50 in series [1] (setting [2]) was below 1000 nM.

With `Cl.Cn1c(=O)c2ccc(-c3ccc(N)nc3)cc2n2nc(C3CC3)cc12` [Example 63, 8-(6-Amino-pyridin-3-yl)-2-cyclopropyl-4-methyl-4H-pyrazolo[1,5-a]quinazolin-5-one], the melting point was above 250 °C. The IC50 in series [1] (setting [2]) was below 1000 nM.

The compound `CN(C)S(=O)(=O)c1cccc(-c2ccc3c(=O)n(C)c4cc(-c5ccccc5)nn4c3c2)c1` [Example 38, N,N-Dimethyl-3-(4-methyl-5-oxo-2-phenyl-4,5-dihydro-pyrazolo[1,5-a]quinazolin-8-yl)-benzenesulfonamide] had a melting point of 202 to 204 °C. For the same compound, the 50% inhibitory concentration (IC50) in series [1] (N-methylated compounds, statement in description, read-out: IC50 for mGluR2) is below 30 nM. For the same compound, the IC50 in series [1] (setting [2]) is below 1000 nM.

As for `Cc1n[nH]c(C)c1-c1ccc2c(=O)n(C)c3cc(-c4ccccc4)nn3c2c1` [Example 15, 8-(3,5-Dimethyl-1H-pyrazol-4-yl)-4-methyl-2-phenyl-4H-pyrazolo[1,5-a]quinazolin-5-one], the melting point was above 250 °C. Moreover, the IC50 in series [1] (setting [2]) was below 1000 nM.

With `Cl.Nc1ccc(-c2ccc3c(=O)n(CC(F)F)c4cc(-c5ccccc5)nn4c3c2)cn1` [Example 46, 8-(6-Amino-pyridin-3-yl)-4-(2,2-difluoro-ethyl)-2-phenyl-4H-pyrazolo[1,5-a]quinazolin-5-one], the melting point is above 250 °C. For the same compound, the IC50 in series [1] (setting [2]) is below 1000 nM.

Compound `Cl.Nc1ccc(-c2ccc3c(=O)n(CC(F)(F)F)c4cc(C5CCOCC5)nn4c3c2)cn1` [Example 104, 8-(6-Amino-pyridin-3-yl)-2-(tetrahydro-pyran-4-yl)-4-(2,2,2-trifluoro-ethyl)-4H-pyrazolo[1,5-a]quinazolin-5-one] displayed a melting point above 250 °C. For the same compound, the IC50 in series [1] (setting [2]) is below 1000 nM.

With `Cl.Cn1cc(-c2cc3n(C)c(=O)c4ccc(-c5ccc(N)nc5)cc4n3n2)cn1` [Example 128, 8-(6-Amino-pyridin-3-yl)-4-methyl-2-(1-methyl-1H-pyrazol-4-yl)-4H-pyrazolo[1,5-a]quinazolin-5-one], the melting point lay within 217 to 228 °C. Also, the IC50 in series [1] (setting [2]) was below 1000 nM.

Compound `Cc1ccc(-c2ccc3c(=O)n(C)c4cc(-c5ccnc(C(F)(F)F)c5)nn4c3c2)c(C)n1.Cl` [Example 143, 8-(2,6-Dimethyl-pyridin-3-yl)-4-methyl-2-(2-trifluoromethyl-pyridin-4-yl)-4H-pyrazolo[1,5-a]quinazolin-5-one] yielded a melting point above 250 °C. The half-inhibitory concentration (IC50) in series [1] (setting [2]) was below 1000 nM.

Regarding `Cn1c(=O)c2ccc(-c3ccnc(C(F)(F)F)c3)cc2n2nc(-c3ccnc(C(F)(F)F)c3)cc12` [Example 139, 4-Methyl-2,8-bis-(2-trifluoromethyl-pyridin-4-yl)-4H-pyrazolo[1,5-a]quinazolin-5-one], the melting point was above 250 °C. The IC50 in series [1] (setting [2]) was below 1000 nM.

For `Cn1cc(-c2ccc3c(=O)n(C)c4cc(-c5ccccc5)nn4c3c2)cn1` [Example 16, 4-Methyl-8-(1-methyl-1H-pyrazol-4-yl)-2-phenyl-4H-pyrazolo[1,5-a]quinazolin-5-one], the melting point is above 250 °C. The IC50 in series [1] (setting [2]) was below 1000 nM.

Regarding `Cn1c(=O)c2ccc(-c3cn[nH]c3)cc2n2nc(-c3ccccc3)cc12` [Example 6, 4-Methyl-2-phenyl-8-(1H-pyrazol-4-yl)-4H-pyrazolo[1,5-a]quinazolin-5-one], the melting point was above 250 °C. Also, the IC50 in series [1] (setting [2]) was below 1000 nM.

On to `Cn1cc(-c2cc3n(C)c(=O)c4ccc(-c5ccccc5)cc4n3n2)cn1` [Example 124, 4-Methyl-2-(1-methyl-1H-pyrazol-4-yl)-8-phenyl-4H-pyrazolo[1,5-a]quinazolin-5-one], for which the melting point lay within 228 to 231 °C. The IC50 in series [1] (setting [2]) was below 1000 nM.

The compound `Cn1c(=O)c2ccc(-c3cnco3)cc2n2nc(-c3ccccc3)cc12` [Example 21, 4-Methyl-8-oxazol-5-yl-2-phenyl-4H-pyrazolo[1,5-a]quinazolin-5-one] displayed a melting point of 222 to 225 °C. Besides, the IC50 in series [1] (setting [2]) was below 1000 nM.

Take `CCc1cc2n(C)c(=O)c3ccc(-c4ccc(N)nc4)cc3n2n1.Cl` [Example 49, 8-(6-Amino-pyridin-3-yl)-2-ethyl-4-methyl-4H-pyrazolo[1,5-a]quinazolin-5-one]: the melting point was above 250 °C. Further, the IC50 in series [1] (setting [2]) is below 1000 nM.

For `CN(C)S(=O)(=O)c1cccc(-c2ccc3c(=O)n(CC4CC4)c4cc(-c5ccccc5)nn4c3c2)c1` [Example 42, 3-(4-Cyclopropylmethyl-5-oxo-2-phenyl-4,5-dihydro-pyrazolo[1,5-a]quinazolin-8-yl)-N,N-dimethyl-benzenesulfonamide], the melting point was in the range of 115 to 119 °C. Besides, the IC50 in series [1] (setting [2]) is below 1000 nM.

`Cn1c(=O)c2ccc(-c3cc[nH]n3)cc2n2nc(-c3ccccc3)cc12` [Example 17, 4-Methyl-2-phenyl-8-(1H-pyrazol-3-yl)-4H-pyrazolo[1,5-a]quinazolin-5-one] had a melting point of 245 to 249 °C. The IC50 in series [1] (setting [2]) is below 1000 nM.

As for `Cc1cc(-c2ccc3c(=O)n(C)c4cc(-c5ccnc(C(F)(F)F)c5)nn4c3c2)ccn1.Cl` [Example 138, 4-Methyl-8-(2-methyl-pyridin-4-yl)-2-(2-trifluoromethyl-pyridin-4-yl)-4H-pyrazolo[1,5-a]quinazolin-5-one], the melting point is above 250 °C. Besides, the IC50 in series [1] (setting [2]) was below 1000 nM.

In the case of `Cn1c(=O)c2ccc(-c3ccnc(F)c3)cc2n2nc(-c3ccnc(C(F)(F)F)c3)cc12` [Example 140, 8-(2-Fluoro-pyridin-4-yl)-4-methyl-2-(2-trifluoromethyl-pyridin-4-yl)-4H-pyrazolo[1,5-a]quinazolin-5-one], the melting point is above 250 °C. Besides, the concentration for half-maximal inhibition (IC50) in series [1] (setting [2]) was below 1000 nM.

With `Cl.Cn1c(=O)c2ccc(-c3cccnc3)cc2n2nc(C3CCOCC3)cc12` [Example 89, 4-Methyl-8-pyridin-3-yl-2-(tetrahydro-pyran-4-yl)-4H-pyrazolo[1,5-a]quinazolin-5-one], the melting point lay within 202 to 224 °C. In series [1] (setting [2]), the IC50 is below 1000 nM.

The compound `Cl.Cn1c(=O)c2ccc(-c3ccc(N)nc3)cc2n2nc(Cc3ccccc3)cc12` [Example 79, 8-(6-Amino-pyridin-3-yl)-2-benzyl-4-methyl-4H-pyrazolo[1,5-a]quinazolin-5-one] came in with a melting point above 250 °C. The IC50 in series [1] (setting [2]) is below 1000 nM.

`Cl.Cn1c(=O)c2ccc(-c3ccc(N)nc3)cc2n2nc(C3CCC3)cc12` [Example 64, 8-(6-Amino-pyridin-3-yl)-2-cyclobutyl-4-methyl-4H-pyrazolo[1,5-a]quinazolin-5-one] came in with a melting point above 250 °C. In addition, the IC50 in series [1] (setting [2]) was below 1000 nM.

The compound `Cn1c(=O)c2ccc(-c3ncco3)cc2n2nc(-c3ccccc3)cc12` [Example 20, 4-Methyl-8-oxazol-2-yl-2-phenyl-4H-pyrazolo[1,5-a]quinazolin-5-one] had a melting point of 228 to 231 °C. In addition, the IC50 in series [1] (setting [2]) is below 1000 nM.

What is called melting point is the temperature of the solid-liquid transition. By IC50 is commonly meant the concentration needed to halve the response being measured.
